Reference: patent publication US6576614B1, “Peptide analogs as irreversible interleukin-1β protease inhibitors” (Vertex Pharmaceuticals Incorporated, priority 1993, dated 2003)

What was measured:
IL-1β protease = biological target: T1, IL-1β protease (Homo sapiens, UniProt P29466); assay: IL-1β protease inhibition activity (HPLC assay, substrate TRITC-AYVHDAPVRS-NH2); assay type: biochemical; settings: partially purified IL-1β protease; 15 min preincubation with inhibitor at 37° C., 60 min reaction
T1 construct: Partially purified IL-1β protease is stored at −80° C
T1 sequence (P29466 120-297 limits assumed): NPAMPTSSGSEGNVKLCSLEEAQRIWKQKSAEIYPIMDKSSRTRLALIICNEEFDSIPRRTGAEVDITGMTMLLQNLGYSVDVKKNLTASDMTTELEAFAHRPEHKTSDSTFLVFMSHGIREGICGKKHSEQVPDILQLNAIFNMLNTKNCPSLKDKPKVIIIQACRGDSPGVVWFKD
T1 sequence (P29466 317-404 limits assumed): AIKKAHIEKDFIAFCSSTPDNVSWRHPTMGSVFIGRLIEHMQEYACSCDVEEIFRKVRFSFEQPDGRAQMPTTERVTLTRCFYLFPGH
Method: Compounds of the present invention were tested for IL-1β protease inhibition activity according to the following protocol:
Partially purified IL-1β protease is stored at −80° C., thawed on ice, and preincubated for 10 minutes at 37° C. with 2.5 mM dithiothreitol in a buffer solution containing 10 mM Tris-HCl (pH 8.0) and 25% (v/w) glycerol. Inhibitors are prepared as stock solutions in dimethyl sulfoxide (DMSO). The protease is preincubated with inhibitor in a volume of […] in a 1.5 ml polypropylene microcentrifuge tube for 15 minutes at 37° C. The volume of compound added to the assay is adjusted to yield a DMSO concentration in the preincubation of <15% (v/v). The enzyme assay is then initiated by the addition of substrate (TRITC-AYVHDAPVRS-NH2) to yield a final concentration of […] in a final volume of […]. The reaction are carried out for 60 minutes at 37° C. in the dark and are terminated by the addition of […] of 10% trifluoroacetic acid (TFA). Following the addition of […] of 0.1% TFA, the samples are analyzed by high pressure liquid chromatography using a reverse phase (C18) column and elution with an acetonitrile/water/FA gradient. Substrate and product are monitored by their absorbance at 550 nm and elute at 4.2 and 5.2 minutes, respectively.

[1] = tested on: mature IL-1β release from human monocytes; assay: Release of mature IL-1β from human monocytes (pulse chase assay); assay type: cell-based; settings: inhibition of release of mature IL-1β; human monocytes activated with fixed S. aureus; 2-3 donors; read-out: in vivo IC50
Method: Compounds of the present invention were tested for their ability to block mature IL-1β release from cells (monocytes) as described in the following protocol:
Protocol for Monitoring Release of Mature IL-1β-From Human Monocytes
Human monocytes were isolated from heparinized leukopheresis units obtained through Biological Specialty Corporation (Lansdale, Pa.). Monocytes were purified by Ficoll-Hupaque (Pharmacia Fine Chemicals, Piscataway, N.J.) gradient centrifugation and more than 95% pure monocyte populations obtained by centrifugal elutriation. The assay was performed on duplicate samples of freshly isolated human monocytes, cultured in suspension at 37° C. and rotated gently in conical bottom polypropylene tubes (Sardstedt Inc., Princeton, N.J.). Human monocytes at a concentration of 5×10^6 cells/mL were resuspended in 1 mL of RPMI 1640 (a common tissue buffer from M.A. Bioproducts, Walkersyille, Md.) containing 1% fetal calf serum (FCS) (HyClone, Logan, Utah) and 50 μg/mL gentamycin (Gibco, Grand Island, N.Y.). The cells were treated either with a compound of the invention (i.e. test compound) or with a non-inhibitor (control compound, typically 0.03% DMSO) for 15 minutes and then activated with 0.01% fixed Staphylococcus aureus (The Enzyme Center, Malden, Mass.) for 1 hour. The cells were then centrifuged and resuspended in 1 mL of cysteine, methionine-free RPMI media containing 1% dialyzed FCS (Hyclone). The cells were pretreated with a test compound or control compound for 15 minutes after which 0.01% fixed S. aureus plus 100 μCi Tran 35-S label (ICN, Irvine, Calif.) was added and the cells incubated at 37° C. for 1 hour. After incubation, cells were centrifuged, washed once in phosphate buffer saline and resuspended in 1 ML RPMI containing 1% fetal calf serum The cells were again pretreated with a test or control compound for 15 minutes and then 0.01% S. aureus for 2 hours. At the end of the incubation, cells were centrifuged and supernates saved for immunoprecipitation. Cells were washed once in phosphate buffer saline and then lysed in RIPA, a continuous cell media buffer containing 2 mM phenylmethylsulfonyl fluoride, 10 mM iodoacetate, 1 μg/mL pepstatin A, 1 μg/mL leupeptin and 0.5 TIU aprotinin.
For the immunoprecipitations, an equal volume of 1% dry milk in RIPA buffer plus 50 μL of resuspended protein A sepharose CL-4B (Pharmacia, Piscataway, N.Y.) was added to supernates and 1 mL of 4% dry milk containing protein A sepharose CL-4B to cell lysates and samples rotated for 30 minutes at 4° C. Beads were then centrifuged down, samples transferred to fresh tubes and incubated overnight with 40 μg rabbit antihuman IL1B polyclonal antibody (Genzyme, Cambridge, Mass.). The IL-1β proteins were then precipitated with 70 μL protein A sepharose, resuspended in 60 μL SDS sample buffer and run on 15% […] gels. Autoradiography was performed on dried gels and the amount of radioactivity (counts per minute, cpm) quantitated using a Betascope 603 analyzer.
In the monocyte pulse chase assay, each test parameter was run in duplicate. Data was collected from the Beta Scope using a personal computer, then transferred to the VAX system for calculation of mean cpm and standard deviation of the mean. When test compounds were evaluated, the percent inhibition of release of mature IL1β was calculated as follows:
100×[1−(cells treated with stimuli+test compound−unstimulated cells)/(cells teed with stimuli+control compound−unstimulated cells)]
These % inhibition values were then used to calculate IC50 value for each compound. Since the human monocyte pulse chase assay uses primary cells from different donors, each test compound was run in 2-3 separate experiments, using monocytes from 2-3 different donors.

IC50 (IL-1β protease) [nM]	IC50 [1] [nM]	Compound	melting point [°C]
90	–	CCCCNS(=O)(=O)c1ccc(Cl)c(C(=O)OCC(=O)[C@H](CC(=O)O)NC(=O)OCc2ccccc2)c1Cl [Example 49, N-Benzyloxycarbonyl-L-aspartic acid 3-(N-butylsulfonamido)-2,6-dichlorobenzoyloxymethyl ketone]	48 to 50
–	~100000	O=C(O)C[C@H](NC(=O)OCc1ccccc1)C(=O)COC(=O)c1c(F)cccc1F [Example 48, N-Benzyloxycarbonyl-L-aspartic acid 2,6-difluorobenzoyloxymethyl ketone]	–
–	5000	CCN(CC)S(=O)(=O)c1c(F)c(F)c(OCC(=O)[C@H](CC(=O)O)NC(=O)[C@@H](NC(=O)OCc2ccccc2)C(C)C)c(F)c1F [Example 71, N-Benzyloxycarbonyl-L-valine-L-aspartic acid 4-(N,N-diethyl-sulfonamido)-2,3,5,6-tetrafluorophenoxymethyl ketone]	–
–	10000	O=C(O)C[C@@H](NC(=O)OCc1ccccc1)C(=O)COC(=O)c1c(Cl)cccc1Cl [Example 69, N-Benzyloxycarbonyl-D-aspartic acid 2,6-dichlorobenzoyloxymethyl ketone]	–
–	~100000	COc1cccc(OC)c1C(=O)OCC(=O)[C@H](CC(=O)O)NC(=O)OCc1ccccc1 [Example 45, N-Benzyloxycarbonyl-L-aspartic acid 2,6-dimethoxybenzoyloxy methyl ketone]	–
200	–	O=C(O)C[C@H](NC(=O)COC(=O)c1c(Cl)cccc1Cl)C(=O)COC(=O)c1c(Cl)cccc1Cl [Example 70]	–
80	–	N-Methoxycarbonyl-L-aspartic acid 2,6-dichlorobenzoyloxymethyl ketone [Example 67]	–
100	–	O=C(O)C[C@H](NC(=O)OCc1ccccc1)C(=O)COc1c(Cl)cccc1Cl [Example 41, N-Benzyloxycarbonyl-L-aspartic acid 2,6 dichlorophenoxymethyl ketone]	–
–	30000	O=C(O)C[C@H](NC(=O)c1ccco1)C(=O)COC(=O)c1c(Cl)ccc(S(=O)(=O)N2CCOCC2)c1Cl [Example 65, N-(2-Furonyl)carbonyl-L-aspartic acid 2,6-dichloro-3-(N-morpholinylsulfonamido)benzoyloxymethyl ketone]	–
320	–	O=C(O)C[C@H](NC(=O)OCc1ccccc1)C(=O)COc1ccc(S(=O)(=O)N2CCOCC2)cc1F [Example 42, N-Benzyloxycarbonyl-L-aspartic acid 2-fluoro-4-(N-morpholinylsulfonamido)phenoxymethyl ketone]	65 to 66
100	–	O=C(O)C[C@H](NC(=O)OCc1ccccc1)C(=O)COC(=O)c1c(C(F)(F)F)cccc1C(F)(F)F [Example 40, N-Benzyloxycarbonyl-L-aspartic acid 2,6-ditrifluoromethyl benzoyloxymethyl ketone]	–

Continued, compound first:

Compound	IC50 (IL-1β protease) [nM]	IC50 [1] [nM]	melting point [°C]
CC(C)[C@H](NC(=O)OCc1ccccc1)C(=O)N[C@@H](C)C(=O)N[C@@H](CC(=O)O)C(=O)COC(=O)c1c(Cl)cccc1Cl [Example 63, N-Benzyloxycarbonyl-L-valine-L-alanine-L-aspartic acid 2,6-di-chlorobenzoyloxymethyl ketone]	–	500	–
COC(=O)N[C@@H](C)C(=O)N[C@@H](CC(=O)O)C(=O)COC(=O)c1c(Cl)cccc1Cl [Example 54, N-Methoxycarbonyl-L-alanine-L-aspartic acid 2,6-dichlorobenzoyloxymethyl ketone]	60	–	–
CN(C)Cc1ccc(C(=O)N[C@@H](CC(=O)O)C(=O)COC(=O)c2c(Cl)cccc2Cl)cc1 [Example 68, N-(4-N,N-dimethylaminomethyl)benzoyl-L-aspartic acid 2,6-dichlorobenzoyloxymethyl ketone]	300	–	55 to 57
O=C(O)C[C@H](NC(=O)OCc1ccccc1)C(=O)COC(=O)c1c(Cl)cccc1Cl [Example 38, N-benzyloxycarbonyl-L-aspartic acid 2,6-dichlorobenzoyloxymethyl ketone]	50	10000	–
O=C(O)C[C@H](NC(=O)OCc1ccccc1)C(=O)COC(=O)c1c(Cl)ccc(S(=O)(=O)N2CCOCC2)c1Cl [Example 53, N-Benzyloxycarbonyl-L-aspartic acid 2,6-dichloro-3-(N-morpholinylsulfonamido)benzoyloxymethyl ketone]	90	–	–
CC(C)[C@H](NC(=O)OCc1ccccc1)C(=O)N[C@@H](CC(=O)O)C(=O)COC(=O)c1c(Cl)cccc1Cl [Example 61, N-Benzyloxycarbonyl-L-valine-L-aspartic acid 2,6-dichlorobenzoyloxy-methyl ketone]	–	900	–
N-Methoxycarbonyl-L-valine-L-aspartic acid 2,6-dichlorobenzoyloxy-methyl ketone [Example 59]	–	10000	–
NC(=O)CNS(=O)(=O)c1ccc(Cl)c(C(=O)OCC(=O)[C@H](CC(=O)O)NC(=O)OCc2ccccc2)c1Cl [Example 52, N-Benzyloxycarbonyl-L-aspartic acid 3-(N-[2-aminoacetamidoyl]sulfonamido)-2,6-dichlorobenzoyloxymethyl ketone]	60	–	54 to 56
COC(=O)N[C@@H](Cc1ccccc1)C(=O)N[C@@H](CC(=O)O)C(=O)COC(=O)c1c(Cl)cccc1Cl [Example 57, N-Methoxycarbonyl-L-phenylalanine-L-aspartic acid 2,6-dichlorobenzoyloxymethyl ketone]	70	–	–
O=C(O)C[C@H](NC(=O)c1ccco1)C(=O)COC(=O)c1c(Cl)cccc1Cl [Example 64, N-(2-Furonyl)carbonyl-L-aspartic acid 2,6-dichlorobenzoyloxymethyl ketone]	140	–	–
